Test: Storage color stability of resorcinol formulations with and without micronized TiO2 (chromameter CIE L*)
Type: physicochemical
Design: key: difference in CIE L* (lightness) values, with TiO2 minus without
Conditions: 45° C. oven, glass amber jars, 0.2% micronized TiO2 (MT-100Z), resorcinol content 2.17 milli-M
Protocol: In this experiment, the storage stability in terms of color change of resorcinol derivatives time was measured with and without the presence of metal oxides.
The color stabilization of formulations of containing 4-substituted resorcinol derivatives by TiO2 was assessed by measuring the chromameter L* value (Luminance, or lightness) of the different formulations over time. A decrease in L* over time represents a darkening of the formulations as color develops from the white starting formulation due to decomposition of the resorcinol derivative. In Table 5 below, the ΔL value between formulations with and without TiO2 indicates the magnitude of color difference between the comparative samples. […] Thus, one can see that TiO2 has a large color-stabilizing effect, particularly on the formulations containing 4-substituted resorcinols.
The cosmetic compositions of Examples 5 to 8 in the Table above were stored and tested for stability in terms of discoloration. The resorcinol and 4-substituted resorcinol derivatives in these examples had equal molar content, i.e., 2.17 milli-M. A comparative composition, example 8, was made by eliminating resorcinol or its derivatives from the compositions of examples 5 to 8. The product formulations were stored for 56 days in glass amber jars of 120 ml volume in an oven at 45° C.
Procedure for Measuring CIE L*a*b* Color of Cosmetic Formulations
A film is created by applying a composition evenly to an UV-Transparent quartz plate (4″×4⅛″×⅛″) with a spatula. An 8-path wet film applicator from Paul Gardner Company, Inc. with a 3″ path width is used. The applicator is manually drawn across the plate for a […] thickness.
The plate is flipped over with the thin film facing the bench top and suspended 1½″ above a black benchtop (L*a*b* reading of the benchtop is L*=27.5, a*=0.5, b*=−0.6). Then a hand held Minolta CR10 chromameter is calibrated on a white Calibration Color tile (L 98.2, a 0.2, b 1.2). The chromameter is then placed on the top of the plate and three readings of the Commission Internationale de l'Eclairage (CIE) L*a*b* color system are taken. • L*=Black to white (luminance) from 0 to 100 [L*=0 represents Black] • a*=green to red from −60 to +60 • b*=blue to yellow from −60 to +60
The formulation thin film L* values were used in the present analysis. For each data collection the average value for the three readings was used at 0, 14, 28, and 56 days.

Base-adjusted ΔL with TiO2 - ΔL without TiO2 for the resorcinol formulations (storage time 0 day)	Base-adjusted ΔL with TiO2 - ΔL without TiO2 for the resorcinol formulations (storage time 14 days)	Base-adjusted ΔL with TiO2 - ΔL without TiO2 for the resorcinol formulations (storage time 28 days)	Base-adjusted ΔL with TiO2 - ΔL without TiO2 for the resorcinol formulations (storage time 56 days)	Compound
0	0.9	−2	1.1	Oc1cccc(O)c1 [Resorcinol]
0	7.7	0.1	3.7	CCCCCCc1ccc(O)cc1O [4-Hexyl resorcinol, 4-hexyl resorcinol]
0	12.0	4.6	7.6	CCc1ccc(O)cc1O [4-Ethyl resorcinol, 4-ethyl resorcinol]

— US6863897B2, “Stabilization of resorcinol derivatives in cosmetic compositions” (Unilever Home & Personal Care USA, division of Conopco, Inc., priority 2002, dated 2005)
